Structures can show the parent of a compound that is named as a salt.

In one assay the target is T1, FLT3 (D835Y) (Homo sapiens, UniProt P36888, D835Y).
T1 construct: purchased Reaction Biology Corp. (Malvern, PA, USA)
Description: Radiometric HotSpot kinase assay, FLT3 (D835Y). The format is biochemical. The note with it: ATP 20 μM; peptide substrate 5 μM. How it is done:
(§1) Kinase IC50 values were determined by Reaction Biology Corp. (Malvern, PA, USA) in the Radiometric HotSpot™ Assay using recombinantly expressed kinase enzymes. Compound (I) was tested in a 10-dose IC50 curve in duplicate. Enzymes were tested at the Km [ATP] for each enzyme using the Reaction Biology binning structure. Kinase reactions were initiated by the addition of protein or peptide substrate and [γ-^33P]-adenosine triphosphate (ATP). Phosphorylated substrates were captured by spotting of the reaction mix on filter membranes, and enzymatic activity was quantified by liquid scintillation counting. Substrates and ATP concentrations are as follows: • FLT3: Peptide substrate, [EAIYAAPFAKKK], 5 μM: ATP 50 μM • FLT3-ITD (internal tandem duplication): Peptide substrate, [EAIYAAPFAKKK], 20 μM: ATP, 30 μM • FLT3 (D835Y): Peptide substrate, [EAIYAAPFAKKK], 5 μM: ATP 20 μM • TAK1: Casein, 1 mg/mL: ATP, 20 μM

For a further assay, the target named is T2, TAK1/MAP3K7 (Homo sapiens, UniProt O43318).
T2 construct: purchased Reaction Biology Corp. (Malvern, PA, USA)
The assay can be described thus: Radiometric HotSpot kinase assay, TAK1. The format is biochemical. The note with it: ATP 20 μM; casein 1 mg/mL. The protocol: as §1

The subject of assay [1] is SLP-76 Ser376 phosphorylation. The assay can be described thus: Phospho-SLP-76 (Ser376) sandwich ELISA in anti-CD3 stimulated Jurkat E6.1 cells. The format is cell-based. To be noted: Homo sapiens, 3 hours pretreatment, anti-CD3 (OKT3) 5 μg/mL 15 minutes. The protocol:
Jurkat E6.1 cells were starved overnight in RPMI-1640 medium (Invitrogen) without fetal bovine serum (FBS). Starved cells (2×10^6 per sample in 1 mL) were pretreated with Compound (I) tartrate for 3 hours and then stimulated with 5 μg/mL anti-CD3 antibody (clone OKT3) for 15 minutes. Cells were immediately lysed in cell lysis buffer plus protease and phosphatase inhibitors, and then assayed for SLP-76 Ser376 phosphorylation with the PathScan Phospho-SLP-76 (Ser376) Sandwich ELISA Kit according to the kit instructions (Cell Signaling Technology, Inc.). Duplicate data points for each concentration were collected (Molecular Devices M5). Raw absorbance (A=450 nm) values were background subtracted and then individual values were averaged for each Compound (I) tartrate concentration. The cellular EC50 was determined using a simple one-site dose-response curve fitting model (XLfit4, IDBS).
For orientation: In an ELISA, binding on a coated surface is turned into a signal by an enzyme label.

In assay [2] the test system is FLT3-ITD-expressing 32D cells. Description: Growth inhibition, 32D transfectants. To be noted: 32D transfectant FLT3-ITD, without cytokines. The format is cell-based. The protocol: (§2) Cell lines were obtained from American Type Culture Collection (ATCC) and maintained according to the supplier's instructions, and from Dr. Mark Minden (Princess Margaret Cancer Centre, Toronto, Canada). Short tandem repeat (STR) profiling was used to verify authenticity of the cell lines. Peripheral blood from healthy human donors was obtained from the Hematology Malignancy Tissue Bank at the University Health Network. Peripheral blood mononuclear cells (PBMC) were prepared from the blood by density gradient centrifugation using Ficoll-Paque PLUS by manufacturer's instructions (GE Healthcare Life Sciences). […] Compound (I) tartrate was prepared as a 10 mM stock solution in 100% DMSO. The stock solution was diluted with RPMI-1640 (Invitrogen) containing 10% FBS (fetal bovine serum) such that the final concentrations ranged from 300 fM to 300 μM. Aliquots (20 μL) from each concentration were overlaid to 180 μL of pre-seeded cells to achieve final concentrations of 30 fM to 30 μM. After 3 days, cell growth in each well was assessed by Alamar Blue assay reagent (Invitrogen). Raw fluorescence (λEM=590 nm) values were adjusted by subtracting the average of the baseline readings from untreated cells assessed one day after cell seeding. Relative cell growth was calculated by comparing to DMSO-treated cells. […]

In assay [3] the test system is Wild-type FLT3-expressing 32D cells. Description: Growth inhibition, 32D transfectants. The format is cell-based. The note with it: 32D transfectant wild-type FLT3, 50 ng/ml human FLT3 ligand. How it is done: as §2
The subject of assay [4] is mature 160 kDa form of FLT3-ITD. Description: Immunoblot of FLT3 in MV-4-11 cells. The format is cell-based, human. To be noted: 4 hours, dose-dependent. The protocol: (§3) MV-4-11 cells (FLT3 LOH, FLT3-ITD positive cells) were treated with the indicated concentrations of Compound (I) tartrate for 4 hours at 37° C. and 5% CO2. Lysates were analyzed by immunoblot analysis with antibodies against FLT3 (Cell Signaling Technology, Inc., Cat. #3462), PARP (Cell Signaling Technology, Inc., Cat. #9542) and GAPDH (Millipore, Cat. #MAB374). Protein bands were visualized using a LI-COR Odyssey near infrared imager and representative data are shown. Compound (I) tartrate treatment increases the expression of the mature 160 kDa form of FLT3-ITD in MV-4-11 cells in a dose-dependent manner. Apoptotic cell death as measured by PARP cleavage was induced by Compound (I) tartrate treatment.
(In general: In western blotting, separated proteins are transferred to a membrane and probed.)

For assay [5], the system named is PARP cleavage (apoptotic cell death). The assay can be described thus: Immunoblot of PARP cleavage in MV-4-11 cells. The format is cell-based, human. The note with it: 4 hours. The protocol: as §3
The subject of the next assay is cell surface FLT3-ITD. The assay can be described thus: Flow cytometry, cell surface FLT3 in primary human AML cells. The format is cell-based. The note with it: FLT3-ITD positive primary AML cells, viable CD14− blasts, 48 and 72 hours, dose-dependent. The protocol: Patient samples were obtained from Dr. Mark Minden (Princess Margaret Cancer Centre, Toronto, Ontario, Canada). FLT3-ITD positive AML cells were treated with the indicated concentrations of Compound (I) for 48 and 72 hours at 37° C. and 5% CO2 and stained with APC-CD45, PECy7-CD38, APC/Fire 750-CD33, PerCP-CD14, PE-FLT3 (Beckman Coulter, Cat. IM2234U), PE/Dazzle 594-CD117 (BioLegend, Cat. #313226) or isotype control antibodies and analyzed on a BD LSRFortessa II flow cytometry analyzer. Data were analyzed using FlowJo software and representative data are shown. Compound (I) treatment increases the cell surface expression of FLT3 and c-KIT in a dose-dependent manner in viable CD14^− AML blast cells. Similar results were obtained in additional FLT3-ITD positive primary AML samples (data not shown).
A general note: Flow cytometry measures light scatter and fluorescence of single cells or particles in a stream.

T2 sequence (O43318 1-303 limits assumed): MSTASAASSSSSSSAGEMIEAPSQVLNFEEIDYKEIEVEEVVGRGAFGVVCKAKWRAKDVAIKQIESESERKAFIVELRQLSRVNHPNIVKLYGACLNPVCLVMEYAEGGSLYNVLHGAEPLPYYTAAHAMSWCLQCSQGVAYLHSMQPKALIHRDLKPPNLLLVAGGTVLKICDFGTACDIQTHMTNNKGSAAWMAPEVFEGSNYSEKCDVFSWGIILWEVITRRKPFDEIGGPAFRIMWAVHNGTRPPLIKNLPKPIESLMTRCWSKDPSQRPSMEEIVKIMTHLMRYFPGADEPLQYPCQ

One may read the IC50 as the concentration at which inhibition is half-maximal. A high value points to lower potency. As usually defined, the EC50 is the concentration that produces a half-maximal response. With `CN1CCN(c2ccc3nc(-c4c(N)c5ccsc5[nH]c4=O)[nH]c3c2)CC1` [Compound (I) tartrate, 4-amino-5-(6-(4-methylpiperazin-1-yl)-1H-benzo[d]imidazol-2-yl)thieno[2,3-b]pyridin-6(7H)-one], the IC50 against FLT3 (D835Y) is 0.023 nM; against TAK1/MAP3K7, 18 nM; in assay [2] it was 6.3 nM; in assay [3], 1650 nM. Further, the EC50 in assay [1] was determined as 24 nM. Also, the “expression of the mature 160 kDa form of FLT3-ITD” value in assay [4] is “increases”. The “apoptotic cell death as measured by PARP cleavage” value in assay [5] was “induced”. Besides, the “cell surface expression of FLT3” value in the assay on cell surface FLT3-ITD is reported as “increases”.

Values taken from patent US20250049787A1, “TREATMENT FOR ACUTE MYELOID LEUKEMIA OR LYMPHOMA” (UNIVERSITY HEALTH NETWORK, priority 2021, published 2025).
